In patent US10059713B2 (Takeda Pharmaceutical Company Limited, priority 2014, dated 2018):

biological target: human GPR43 (Homo sapiens (Human), UniProt O15552); assay: Ca-Flux functional assay: determination of agonist/positive allosteric modulator (PAM) activity; format: cell-based; settings: CHO-K1 Gα16 cells stably expressing human GPR43; compound added with EC20 sodium acetate; intracellular Ca2+ by FLIPR; does not distinguish agonist from PAM
In short: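 Agonist or PAM activity read as intracellular Ca2+ rise by FLIPR after adding compound plus EC20 acetate, acetate EC20 set from a prior curve. Cells: CHO-K1 Gα16 with stable human GPR43. EC50 from ten-point half-log curves starting 10 μM.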

human GPR43, sequence (O15552 whole entry): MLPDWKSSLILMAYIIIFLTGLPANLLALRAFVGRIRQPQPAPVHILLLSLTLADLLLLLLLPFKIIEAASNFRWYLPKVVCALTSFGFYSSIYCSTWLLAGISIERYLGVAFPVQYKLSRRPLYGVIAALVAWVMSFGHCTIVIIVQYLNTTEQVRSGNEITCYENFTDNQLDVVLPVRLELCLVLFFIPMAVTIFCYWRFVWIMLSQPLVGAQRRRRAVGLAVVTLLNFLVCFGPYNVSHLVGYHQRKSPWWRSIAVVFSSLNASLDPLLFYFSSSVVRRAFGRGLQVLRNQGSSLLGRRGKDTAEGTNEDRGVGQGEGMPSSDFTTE

Structure (SMILES)	EC50 [µM]
Nc1[nH]c2c(N3CCC(F)(F)CC3)ncnc2c1S(=O)(=O)c1ccccc1 [Example 24, 7-(benzenesulfonyl)-4-(4,4-difluoropiperidin-1-yl)-5H-pyrrolo[3,2-d]pyrimidin-6-amine]	0.019
Cc1nc(OC2CC(F)(F)C2)c2[nH]c(N)c(S(=O)(=O)c3ccccc3)c2n1 [Example 259, 7-(benzenesulfonyl)-4-(3,3-difluorocyclobutoxy)-2-methyl-5H-pyrrolo[3,2-d]pyrimidin-6-amine]	0.066
Cc1cccc(-c2ncnc3c(S(=O)(=O)c4ccccc4)c(N)[nH]c23)c1 [Example 57, 7-(benzenesulfonyl)-4-(3-methylphenyl)-5H-pyrrolo[3,2-d]pyrimidin-6-amine]	0.015
C[C@H]1CN(c2ncnc3c(S(=O)(=O)c4ccccc4)c(N)[nH]c23)CCO1 [Example 86, 7-(benzenesulfonyl)-4-[(2S)-2-methylmorpholin-4-yl]-5H-pyrrolo[3,2-d]pyrimidin-6-amine]	0.019
Nc1[nH]c2c(N(CC3CC3)CC3CCCO3)ncnc2c1S(=O)(=O)c1ccccc1 (stereo not shown) [Example 63, 7-(benzenesulfonyl)-4-N-(cyclopropylmethyl)-4-N-(oxolan-2-ylmethyl)-5H-pyrrolo[3,2-d]pyrimidine-4,6-diamine]	0.125
Nc1[nH]c2c(C3CCCCC3)ncnc2c1S(=O)(=O)c1cccc(F)c1 [Example 39, 4-cyclohexyl-7-[(3-fluorobenzene)sulfonyl]-5H-pyrrolo[3,2-d]pyrimidin-6-amine]	0.08
CN(Cc1ccccn1)c1ncnc2c(S(=O)(=O)c3ccccc3)c(N)[nH]c12 [Example 95, 7-(benzenesulfonyl)-4-N-methyl-4-N-(pyridin-2-ylmethyl)-5H-pyrrolo[3,2-d]pyrimidine-4,6-diamine]	7.13
Nc1[nH]c2c(C3CCCC3)ncnc2c1S(=O)(=O)c1ccccc1 [Example 23, 7-(benzenesulfonyl)-4-cyclopentyl-5H-pyrrolo[3,2-d]pyrimidin-6-amine]	0.097
Cc1nc(COc2ncnc3c(S(=O)(=O)c4ccccc4)c(N)[nH]c23)c(C)o1 [Example 163, 7-(benzenesulfonyl)-4-[(dimethyl-1,3-oxazol-4-yl)methoxy]-5H-pyrrolo[3,2-d]pyrimidin-6-amine]	6.26
COc1ccccc1S(=O)(=O)c1c(N)[nH]c2c(N3CCOC(C)C3)ncnc12 (stereo not shown) [Example 152, 7-(2-methoxybenzenesulfonyl)-4-(2-methylmorpholin-4-yl)-5H-pyrrolo[3,2-d]pyrimidin-6-amine]	2.15
Nc1[nH]c2c(N3CCOC4(CC4)C3)ncnc2c1S(=O)(=O)c1ccccc1 [Example 151, 7-(benzenesulfonyl)-4-{4-oxa-7-azaspiro[2.5]octan-7-yl}-5H-pyrrolo[3,2-d]pyrimidin-6-amine]	0.023
Nc1[nH]c2c(CCC3CC3)ncnc2c1S(=O)(=O)c1ccccc1 [Example 13, 7-(benzenesulfonyl)-4-(2-cyclopropylethyl)-5H-pyrrolo[3,2-d]pyrimidin-6-amine]	0.267
Nc1[nH]c2c(C3=CCCC3)ncnc2c1S(=O)(=O)c1ccccc1 [Example 22, 7-(benzenesulfonyl)-4-(cyclopent-1-en-1-yl)-5H-pyrrolo[3,2-d]pyrimidin-6-amine]	0.073
Cc1cccc(-c2nc(C)nc3c(S(=O)(=O)c4ccccc4)c(N)[nH]c23)c1 [Example 148, 7-(benzenesulfonyl)-2-methyl-4-(3-methylphenyl)-5H-pyrrolo[3,2-d]pyrimidin-6-amine]	0.014

Results, then the molecule that gave them:

EC50 [µM]	Structure (SMILES)
0.005	Cc1nc(N2CCO[C@H](C)[C@@H]2C)c2[nH]c(N)c(S(=O)(=O)c3ccccc3F)c2n1 (racemic) [Example 275, 4-[(RS,SR)-2,3-dimethylmorpholin-4-yl]-7-(2-fluorobenzenesulfonyl)-2-methyl-5H-pyrrolo[3,2-d]pyrimidin-6-amine]
0.009	Cc1nc(N2CCC3(CC2)CC3)c2[nH]c(N)c(S(=O)(=O)c3ccccc3F)c2n1 [Example 214, 4-{6-azaspiro[2.5]octan-6-yl}-7-(2-fluorobenzenesulfonyl)-2-methyl-5H-pyrrolo[3,2-d]pyrimidin-6-amine]
0.027	Cc1nc(N2CCC3(CC2)CC3)c2[nH]c(N)c(S(=O)(=O)c3ccccc3)c2n1 [Example 207, 4-{6-azaspiro[2.5]octan-6-yl}-7-(benzenesulfonyl)-2-methyl-5H-pyrrolo[3,2-d]pyrimidin-6-amine]
0.018	Cc1nc(N2C[C@@H](C)O[C@@H](C)C2)c2[nH]c(N)c(S(=O)(=O)c3cccc(F)c3)c2n1 [Example 179, 4-[(2R,6S)-2,6-dimethylmorpholin-4-yl]-7-(3-fluorobenzenesulfonyl)-2-methyl-5H-pyrrolo[3,2-d]pyrimidin-6-amine]
0.061	Nc1[nH]c2c(N3CCOC4CCCC43)ncnc2c1S(=O)(=O)c1ccccc1 (stereo not shown) [Example 215, 7-(benzenesulfonyl)-4-{octahydrocyclopenta[b]morpholin-4-yl}-5H-pyrrolo[3,2-d]pyrimidin-6-amine]
0.001	Cc1nc(N2CCO[C@@H](C(F)(F)F)C2)c2[nH]c(N)c(S(=O)(=O)c3ccccc3F)c2n1 [Example 289, 7-(2-fluorobenzenesulfonyl)-2-methyl-4-[(2R)-2-(trifluoromethyl)morpholin-4-yl]-5H-pyrrolo[3,2-d]pyrimidin-6-amine]
0.085	C=C(C)c1nc(C)nc2c(S(=O)(=O)c3ccccc3F)c(N)[nH]c12 [Example 224, 7-(2-fluorobenzenesulfonyl)-2-methyl-4-(prop-1-en-2-yl)-5H-pyrrolo[3,2-d]pyrimidin-6-amine]
0.064	CC[C@H](C)Oc1nc(C)nc2c(S(=O)(=O)c3ccccc3)c(N)[nH]c12 [Example 246, 7-(benzenesulfonyl)-4-[(2S)-butan-2-yloxy]-2-methyl-5H-pyrrolo[3,2-d]pyrimidin-6-amine]
0.156	CC1CC(Oc2ncnc3c(S(=O)(=O)c4ccccc4)c(N)[nH]c23)CC(C)O1 (stereo not shown) [Example 210, 7-(benzenesulfonyl)-4-[(2,6-dimethyloxan-4-yl)oxy]-5H-pyrrolo[3,2-d]pyrimidin-6-amine]
0.303	Cc1nc(C2CCCC2)c2[nH]c(N)c(S(=O)(=O)c3cccc(F)c3)c2n1 [Example 209, 4-cyclopentyl-7-(3-fluorobenzenesulfonyl)-2-methyl-5H-pyrrolo[3,2-d]pyrimidin-6-amine]
0.002	Cc1nc(N2CCOC(C(F)(F)F)C2)c2[nH]c(N)c(S(=O)(=O)c3ccccc3F)c2n1 (stereo not shown) [Example 231, 7-(2-fluorobenzenesulfonyl)-2-methyl-4-[2-(trifluoromethyl)morpholin-4-yl]-5H-pyrrolo[3,2-d]pyrimidin-6-amine]
0.049	Cc1nc(OCC(C)C)c2[nH]c(N)c(S(=O)(=O)c3ccccc3)c2n1 [Example 251, 7-(benzenesulfonyl)-2-methyl-4-(2-methylpropoxy)-5H-pyrrolo[3,2-d]pyrimidin-6-amine]
0.05	Nc1[nH]c2c(OC3CCCC3)ncnc2c1S(=O)(=O)c1ccccc1 [Example 202, 7-(benzenesulfonyl)-4-(cyclopentyloxy)-5H-pyrrolo[3,2-d]pyrimidin-6-amine]
0.364	CC1(COc2ncnc3c(S(=O)(=O)c4ccccc4)c(N)[nH]c23)CC1 [Example 173, 7-(benzenesulfonyl)-4-[(1-methylcyclopropyl)methoxy]-5H-pyrrolo[3,2-d]pyrimidin-6-amine]
